What follows are compounds tested against T1, Motilin Receptor (Oryctolagus cuniculus, UniProt G1T803) (assay: Motilin receptor binding, rabbit colon membranes, 125I porcine motilin). Conditions: rabbit colon membranes.
T1 construct: The muscle tissue was homogenized in 10 volumes of 50 mM Tris-Cl; from tissue; host or cells: rabbit colon smooth muscle, crude membrane homogenate
Parameters: Rabbit Colon % Inh / inhibition / % Inh (Rabbit colon): dose or concentration left out as unconfirmed
Method: Rabbit colon was removed, dissected free from the mucosa and serosa, and diced into small pieces. The muscle tissue was homogenized in 10 volumes of 50 mM Tris-Cl, 10 mM MgCl2, 0.1 mg/ml bacitracin, and 0.25 mM Peflabloc, at pH 7.5 in a Polytron (29000 rpm, 4×15 seconds). The homogenate was centrifuged at 1000×g for 15 minutes and the supernatant discarded. The pellet was washed twice before being suspended in homogenizing buffer. The crude homogenate was resuspended through a 23 gauge needle before storing at −80° C. […] After 60 minutes at 30° C., the samples were cooled in ice, centrifuged in the cold at 13000×g for 1 minute. The pellet was washed twice with 1 ml of cold saline, the supernatant was aspirated, and the pellet at the bottom of the tube counted in a gamma counter. Non-specific binding was determined by the inclusion of 1 mM of unlabeled motilin. IC50 values were determined from Kaleidograph curves.

T1 sequence (G1T803 1-400): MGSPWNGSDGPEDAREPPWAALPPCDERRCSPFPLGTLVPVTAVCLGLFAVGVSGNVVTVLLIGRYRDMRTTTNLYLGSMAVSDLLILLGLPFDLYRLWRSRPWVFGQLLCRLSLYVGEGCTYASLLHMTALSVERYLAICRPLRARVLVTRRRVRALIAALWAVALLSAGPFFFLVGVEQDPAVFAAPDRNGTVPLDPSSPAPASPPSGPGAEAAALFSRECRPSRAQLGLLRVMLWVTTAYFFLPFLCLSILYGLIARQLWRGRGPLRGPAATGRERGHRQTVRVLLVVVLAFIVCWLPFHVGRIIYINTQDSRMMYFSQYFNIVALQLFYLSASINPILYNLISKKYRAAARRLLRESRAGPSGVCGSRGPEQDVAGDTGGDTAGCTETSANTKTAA

Row | Structure (SMILES) | Rabbit Colon % Inh
1 | O=C(Nc1ccccc1)N(CC1CCCC(N(Cc2cccc(Cl)c2)C(=O)C(c2ccccc2)c2ccccc2)C1)c1cccc(OCCN2CCOCC2)c1 (centres unmarked) [compound 56] | 27%
2 | O=C(Nc1ccccc1)N(CC1CCCC(NS(=O)(=O)c2ccc3ccccc3c2)C1)c1cccc(OCCN2CCOCC2)c1 (centres unmarked) [compound 71] | 43%
3 | O=C(NC1CCCC(CN(C(=O)Nc2ccccc2)c2cccc(OCCN3CCOCC3)c2)C1)c1cc(C(F)(F)F)cc(C(F)(F)F)c1 (centres unmarked) [compound 74] | 29%
4 | O=C(NC1CCCC(CN(C(=O)Nc2ccccc2)c2cccc(OCCN3CCOCC3)c2)C1)c1ccc(-c2ccccc2)cc1 (centres unmarked) [compound 75] | 19%
5 | O=C(NC1CCCC(CN(C(=O)Nc2ccccc2)c2cccc(OCCN3CCOCC3)c2)C1)C(c1ccccc1)c1ccccc1 (centres unmarked) [compound 81] | 56%
6 | O=C(Nc1ccccc1)N(CC1CCCC(N(Cc2ccccc2)C(=O)c2cc(C(F)(F)F)cc(C(F)(F)F)c2)C1)c1cccc(OCCN2CCOCC2)c1 (centres unmarked) [compound 82] | 0%
7 | O=C(Nc1ccccc1)N(CC1CCCC(N(Cc2ccccc2)C(=O)c2ccc(-c3ccccc3)cc2)C1)c1cccc(OCCN2CCOCC2)c1 (centres unmarked) [compound 83] | 3%
8 | O=C(c1ccc(F)cc1)N(CC1CCCC(NC(=O)C(Cl)(Cl)Cl)C1)c1cccc(OCCN2CCOCC2)c1 (centres unmarked) [compound 91] | 36%
9 | O=C(c1ccc(F)cc1)N(CC1CCCC(N(Cc2cccc(Cl)c2Cl)C(=O)C(Cl)(Cl)Cl)C1)c1cccc(OCCN2CCOCC2)c1 (centres unmarked) [compound 92] | 80%
10 | O=C(c1ccc(F)cc1)N(CC1CCCC(N(Cc2ccc(Cl)cc2)C(=O)C(Cl)(Cl)Cl)C1)c1cccc(OCCN2CCOCC2)c1 (centres unmarked) [compound 95] | 51%
11 | COc1cccc(CN(C(=O)C(Cl)(Cl)Cl)C2CCCC(CN(C(=O)c3ccc(F)cc3)c3cccc(OCCN4CCOCC4)c3)C2)c1 (centres unmarked) [compound 97] | 56%
12 | O=C(c1ccc(F)cc1)N(CC1CCCC(N(Cc2cccc(F)c2)C(=O)C(Cl)(Cl)Cl)C1)c1cccc(OCCN2CCOCC2)c1 (centres unmarked) [compound 100] | 78%
13 | O=C(c1ccc(F)cc1)N(CC1CCCC(N(Cc2cccc(Cl)c2)C(=O)C(c2ccccc2)c2ccccc2)C1)c1cccc(OCCN2CCOCC2)c1 (centres unmarked) [compound 101] | 59%
14 | O=C(c1ccc(F)cc1)N(CC1CCCC(N(Cc2cccc(Cl)c2)C(=O)c2cccc([N+](=O)[O-])c2)C1)c1cccc(OCCN2CCOCC2)c1 (centres unmarked) [compound 102] | 47%
15 | O=C(c1ccc(F)cc1)N(CC1CCCC(N(Cc2cccc(Cl)c2)C(=O)c2ccc3ccccc3c2)C1)c1cccc(OCCN2CCOCC2)c1 (centres unmarked) [compound 103] | 2%
16 | O=C(c1ccc(F)cc1)N(CC1CCCC(N(Cc2cccc(Cl)c2)C(=O)CCc2ccccc2)C1)c1cccc(OCCN2CCOCC2)c1 (centres unmarked) [compound 104] | 30%
17 | O=C(c1ccc(F)cc1)N(CC1CCCC(N(Cc2cccc(Cl)c2)C(=O)c2cc(C(F)(F)F)cc(C(F)(F)F)c2)C1)c1cccc(OCCN2CCOCC2)c1 (centres unmarked) [compound 107] | 29%
18 | O=C(c1ccc(F)cc1)N(CC1CCCC(N(Cc2cccc(Cl)c2)C(=O)c2ccc(-c3ccccc3)cc2)C1)c1cccc(OCCN2CCOCC2)c1 (centres unmarked) [compound 109] | 27%
19 | O=C(c1ccc(F)cc1)N(CC1CCCC(N(Cc2ccccc2)C(=O)c2cccc([N+](=O)[O-])c2)C1)c1cccc(OCCN2CCOCC2)c1 (centres unmarked) [compound 113] | 51%
20 | O=C(c1ccc(F)cc1)N(CC1CCCC(N(Cc2ccccc2)C(=O)c2ccc3ccccc3c2)C1)c1cccc(OCCN2CCOCC2)c1 (centres unmarked) [compound 114] | 49%

More lines, now with the values ahead:

Row | Rabbit Colon % Inh | Structure (SMILES)
21 | 48% | O=C(Nc1ccccc1)N(CC1CCCC(N(Cc2cccc(Cl)c2)C(=O)c2cccc([N+](=O)[O-])c2)C1)c1cccc(OCCN2CCOCC2)c1 (centres unmarked) [compound 55]
22 | 38% | O=C(Nc1ccccc1)N(CC1CCCC(N(Cc2cccc(F)c2)C(=O)C(Cl)(Cl)Cl)C1)c1cccc(OCCN2CCOCC2)c1 (centres unmarked) [compound 58]
23 | 23% | O=C(Nc1ccccc1)N(CC1CCCC(N(Cc2ccc(Cl)c(Cl)c2)C(=O)C(Cl)(Cl)Cl)C1)c1cccc(OCCN2CCOCC2)c1 (centres unmarked) [compound 59]
24 | 55% | COc1cccc(CN(C(=O)C(Cl)(Cl)Cl)C2CCCC(CN(C(=O)Nc3ccccc3)c3cccc(OCCN4CCOCC4)c3)C2)c1 (centres unmarked) [compound 61]
25 | 58% | O=C(Nc1ccccc1)N(CC1CCCC(N(Cc2cccc(C(F)(F)F)c2)C(=O)C(Cl)(Cl)Cl)C1)c1cccc(OCCN2CCOCC2)c1 (centres unmarked) [compound 62]
26 | 55% | O=C(Nc1ccccc1)N(CC1CCCC(N(Cc2ccc(Cl)cc2)C(=O)C(Cl)(Cl)Cl)C1)c1cccc(OCCN2CCOCC2)c1 (centres unmarked) [compound 63]
27 | 32% | O=C(Nc1ccccc1)N(CC1CCCC(N(Cc2cccc3ccccc23)C(=O)C(Cl)(Cl)Cl)C1)c1cccc(OCCN2CCOCC2)c1 (centres unmarked) [compound 64]
28 | 39% | O=C(Nc1ccccc1)N(CC1CCCC(N(Cc2cccc(Cl)c2Cl)C(=O)C(Cl)(Cl)Cl)C1)c1cccc(OCCN2CCOCC2)c1 (centres unmarked) [compound 66]
29 | 0% | O=C(Nc1ccccc1)NC1CCCC(CN(C(=O)Nc2ccccc2)c2cccc(OCCN3CCOCC3)c2)C1 (centres unmarked) [compound 69]
30 | 0% | O=C(NC1CCCC(CN(C(=O)Nc2ccccc2)c2cccc(OCCN3CCOCC3)c2)C1)c1ccco1 (centres unmarked) [compound 70]
31 | 25% | O=C(Nc1ccccc1)N(CC1CCCC(NC(=O)C(F)(F)F)C1)c1cccc(OCCN2CCOCC2)c1 (centres unmarked) [compound 73]
32 | 26% | COc1cccc(C(=O)NC2CCCC(CN(C(=O)Nc3ccccc3)c3cccc(OCCN4CCOCC4)c3)C2)c1 (centres unmarked) [compound 76]
33 | 19% | CC(C)(C)C(=O)NC1CCCC(CN(C(=O)Nc2ccccc2)c2cccc(OCCN3CCOCC3)c2)C1 (centres unmarked) [compound 77]
34 | 10% | O=C(CCc1ccccc1)NC1CCCC(CN(C(=O)Nc2ccccc2)c2cccc(OCCN3CCOCC3)c2)C1 (centres unmarked) [compound 78]
35 | 39% | O=C(NC1CCCC(CN(C(=O)Nc2ccccc2)c2cccc(OCCN3CCOCC3)c2)C1)c1ccc2ccccc2c1 (centres unmarked) [compound 79]
36 | 34% | O=C(NC1CCCC(CN(C(=O)Nc2ccccc2)c2cccc(OCCN3CCOCC3)c2)C1)c1cccc([N+](=O)[O-])c1 (centres unmarked) [compound 80]
37 | 16% | O=C(Nc1ccccc1)N(CC1CCCC(N(Cc2cccc(Cl)c2)C(=O)c2cccc(O)c2)C1)c1cccc(OCCN2CCOCC2)c1 (centres unmarked) [compound 86]
38 | 28% | O=C(c1ccc(F)cc1)N(CC1CCCC(N(Cc2cccc3ccccc23)C(=O)C(Cl)(Cl)Cl)C1)c1cccc(OCCN2CCOCC2)c1 (centres unmarked) [compound 94]

Same assay, conditions: rabbit colon membranes; 125I porcine motilin binding

Row | % Inh (Rabbit colon) | Structure (SMILES)
39 | 12% | O=C(Nc1ccccc1)N(CC1CCCC(NCc2ccccc2)C1)c1cccc(OCCN2CCOCC2)c1 (centres unmarked) [compound 84]
40 | 28% | O=C(Nc1ccccc1)N(CC1CCCC(NCc2cccc(Cl)c2)C1)c1cccc(OCCN2CCOCC2)c1 (centres unmarked) [compound 85]
41 | 22% | O=C(Nc1ccccc1)N(CC1CCCC(NCc2cc(Cl)cc(Cl)c2)C1)c1cccc(OCCN2CCOCC2)c1 (centres unmarked) [compound 87]
42 | 0% | O=C(Nc1ccccc1)N(CC1CCCC(NCc2cccc3ccccc23)C1)c1cccc(OCCN2CCOCC2)c1 (centres unmarked) [compound 88]

Same assay, conditions: rabbit colon membranes; read-out: Rabbit Colon % Inh

Row | Structure (SMILES) | inhibition
43 | O=C(Nc1ccccc1)N(CC1CCCC(N(Cc2ccccc2)S(=O)(=O)c2ccc3ccccc3c2)C1)c1cccc(OCCN2CCOCC2)c1 (centres unmarked) [compound 57] | 15%
44 | O=C(c1ccc(F)cc1)N(CC1CCCC(N(Cc2cc(Cl)cc(Cl)c2)C(=O)C(Cl)(Cl)Cl)C1)c1cccc(OCCN2CCOCC2)c1 (centres unmarked) [compound 98] | 75%
45 | O=C(c1ccc(F)cc1)N(CC1CCCC(N(Cc2ccc(Cl)c(Cl)c2)C(=O)C(Cl)(Cl)Cl)C1)c1cccc(OCCN2CCOCC2)c1 (centres unmarked) [compound 99] | 62%
46 | COc1cccc(C(=O)N(Cc2cccc(Cl)c2)C2CCCC(CN(C(=O)c3ccc(F)cc3)c3cccc(OCCN4CCOCC4)c3)C2)c1 (centres unmarked) [compound 106] | 69%
47 | O=C(c1ccc(F)cc1)N(CC1CCCC(N(Cc2cccc(Cl)c2)C(=O)C(F)(F)F)C1)c1cccc(OCCN2CCOCC2)c1 (centres unmarked) [compound 108] | 70%
48 | O=C(c1ccc(F)cc1)N(CC1CCCC(N(Cc2cccc(Cl)c2)C(=O)C(Cl)(Cl)Cl)C1)c1cccc(OCCN2CCOCC2)c1 (centres unmarked) [compound 111] | 72%
49 | O=C(c1ccc(F)cc1)N(CC1CCCC(N(Cc2ccccc2)C(=O)C(c2ccccc2)c2ccccc2)C1)c1cccc(OCCN2CCOCC2)c1 (centres unmarked) [compound 112] | 70%

Now from value to compound:

Row | inhibition | Structure (SMILES)
50 | 65% | O=C(Nc1ccccc1)N(CC1CCCC(N(Cc2cc(Cl)cc(Cl)c2)C(=O)C(Cl)(Cl)Cl)C1)c1cccc(OCCN2CCOCC2)c1 (centres unmarked) [compound 60]
51 | 75% | O=C(Nc1ccccc1)N(CC1CCCC(N(Cc2ccccc2)C(=O)C(Cl)(Cl)Cl)C1)c1cccc(OCCN2CCOCC2)c1 (centres unmarked) [compound 67]
52 | 73% | O=C(Nc1ccccc1)N(CC1CCCC(N(Cc2ccccn2)C(=O)C(Cl)(Cl)Cl)C1)c1cccc(OCCN2CCOCC2)c1 (centres unmarked) [compound 68]
53 | 40% | O=C(Nc1ccccc1)N(CC1CCCC(NC(=O)C(Cl)(Cl)Cl)C1)c1cccc(OCCN2CCOCC2)c1 (centres unmarked) [compound 72]

Same assay, conditions: rabbit colon membranes; read-out: Rabbit Colon IC50

Row | Structure (SMILES) | IC50
54 | O=C(c1ccc(F)cc1)N(CC1CCCC(N(Cc2cc(Cl)cc(Cl)c2)C(=O)C(Cl)(Cl)Cl)C1)c1cccc(OCCN2CCOCC2)c1 (centres unmarked) [compound 98] | 760 nM
55 | O=C(c1ccc(F)cc1)N(CC1CCCC(N(Cc2ccc(Cl)c(Cl)c2)C(=O)C(Cl)(Cl)Cl)C1)c1cccc(OCCN2CCOCC2)c1 (centres unmarked) [compound 99] | 572 nM
56 | COc1cccc(C(=O)N(Cc2cccc(Cl)c2)C2CCCC(CN(C(=O)c3ccc(F)cc3)c3cccc(OCCN4CCOCC4)c3)C2)c1 (centres unmarked) [compound 106] | 1050 nM
57 | O=C(c1ccc(F)cc1)N(CC1CCCC(N(Cc2cccc(Cl)c2)C(=O)C(F)(F)F)C1)c1cccc(OCCN2CCOCC2)c1 (centres unmarked) [compound 108] | 815 nM
58 | O=C(c1ccc(F)cc1)N(CC1CCCC(N(Cc2cccc(Cl)c2)C(=O)C(Cl)(Cl)Cl)C1)c1cccc(OCCN2CCOCC2)c1 (centres unmarked) [compound 111] | 880 nM
59 | O=C(c1ccc(F)cc1)N(CC1CCCC(N(Cc2ccccc2)C(=O)C(c2ccccc2)c2ccccc2)C1)c1cccc(OCCN2CCOCC2)c1 (centres unmarked) [compound 112] | 480 nM

Next, values leading:

Row | IC50 | Structure (SMILES)
60 | 660 nM | O=C(Nc1ccccc1)N(CC1CCCC(N(Cc2cc(Cl)cc(Cl)c2)C(=O)C(Cl)(Cl)Cl)C1)c1cccc(OCCN2CCOCC2)c1 (centres unmarked) [compound 60]
61 | 957 nM | O=C(Nc1ccccc1)N(CC1CCCC(N(Cc2ccccc2)C(=O)C(Cl)(Cl)Cl)C1)c1cccc(OCCN2CCOCC2)c1 (centres unmarked) [compound 67]
62 | 660 nM | O=C(Nc1ccccc1)N(CC1CCCC(N(Cc2ccccn2)C(=O)C(Cl)(Cl)Cl)C1)c1cccc(OCCN2CCOCC2)c1 (centres unmarked) [compound 68]
